Where “and” joins values, the source holds several entries; their conditions need not be identical. Identical values can stand only once. Like-named read-outs stand apart in the source and are kept apart here.
Molecular target: T1, SIRT1 (Homo sapiens, UniProt Q96EB6)
T1 sequence (Q96EB6 1-747): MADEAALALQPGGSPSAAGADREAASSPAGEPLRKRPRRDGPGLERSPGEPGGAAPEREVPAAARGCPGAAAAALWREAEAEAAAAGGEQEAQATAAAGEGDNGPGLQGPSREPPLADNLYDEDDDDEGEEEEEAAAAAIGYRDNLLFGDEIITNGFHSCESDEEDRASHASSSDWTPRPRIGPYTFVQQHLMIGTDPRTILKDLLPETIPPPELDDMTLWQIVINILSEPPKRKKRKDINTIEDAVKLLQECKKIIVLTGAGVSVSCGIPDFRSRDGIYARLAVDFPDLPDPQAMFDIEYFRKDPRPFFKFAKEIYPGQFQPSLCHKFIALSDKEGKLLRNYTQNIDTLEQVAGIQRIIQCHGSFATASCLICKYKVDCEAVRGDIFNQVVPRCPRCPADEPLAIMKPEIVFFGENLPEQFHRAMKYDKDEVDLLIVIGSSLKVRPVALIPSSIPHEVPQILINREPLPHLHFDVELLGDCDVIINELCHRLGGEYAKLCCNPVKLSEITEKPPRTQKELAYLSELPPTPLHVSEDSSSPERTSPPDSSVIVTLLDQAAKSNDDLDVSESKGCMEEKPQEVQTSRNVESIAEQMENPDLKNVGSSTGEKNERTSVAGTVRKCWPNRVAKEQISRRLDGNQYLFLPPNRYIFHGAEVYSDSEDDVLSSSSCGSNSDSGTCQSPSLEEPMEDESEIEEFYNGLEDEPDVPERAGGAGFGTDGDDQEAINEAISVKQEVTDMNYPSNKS
Assay: Mass spectroscopic kinetic assay of SIRT1-catalyzed deacetylation of 20mer peptides
Format: biochemical

CCCCc1nc(NC2CCNCC2)cc(C(=O)Nc2ccccc2-c2nc3cc(COC4CCNCC4)cnc3s2)n1 [Compound 10, 2-butyl-6-(piperidin-4-ylamino)-N-(2-(6-((piperidin-4-yloxy)methyl)thiazolo[5,4-b]pyridin-2-yl)phenyl)pyrimidine-4-carboxamide]
RVmax (maximum relative velocity) (substrate TAMRA-peptide, fit to eq (1)): 6.8±0.3
EC50 (substrate TAMRA-peptide, fit to eq (1), read-out: EC50 (Kx) for activation of SIRT1-catalyzed deacetylation of TAMRA-peptide): 3900 ± 500 nM
Effect on the deacetylation of des(biotin,TAMRA)-peptide (substrate des(biotin,TAMRA)-peptide): none activate
RVmax for activation of the deacetylation of desTAMRA-peptide (substrate desTAMRA-peptide, fit to eq (1)): ~2.3
RVmax for activation of the deacetylation of desTAMRA-peptide (substrate desTAMRA-peptide, fit to eq (1), listed as 22): 2.6 ± 0.1
EC50 (substrate desTAMRA-peptide, fit to eq (1), read-out: EC50 for activation of the deacetylation of desTAMRA-peptide): ~2000 nM and 1700 nM
Ki,app for inhibition of the deacetylation of p53-20 mer (substrate p53-20 mer, RV=1/(1+([X]o/Ki,app))): inhibit
Ki (substrate p53-20 mer, RV=1/(1+([X]o/Ki,app)), read-out: Ki,app for inhibition of the deacetylation of p53-20 mer): 9000 nM
